How the values were obtained:
Format in all cases: in vivo
[1] = tested on: wheat (Triticum aestivum); experiment: Test A preemergence, wheat; conditions: 0 to 100 scale (0 no effect, 100 complete control)
Text: (§1) Seeds of barnyardgrass (Echinochloa crus-galli), large crabgrass (Digitaria sanguinalis), giant foxtail (Setaria faberi), morningglory (Ipomoea spp.), pigweed (Amaranthus retroflexus), velvetleaf (Abutilon theophrasti), wheat (Triticum aestivum), and corn (Zea mays) were planted into a blend of loam soil and sand and treated preemergence with a directed soil spray using test chemicals formulated in a non-phytotoxic solvent mixture which included a surfactant. At the same time these species were also treated with postemergence applications of test compounds formulated in the same manner. Plants ranged in height from two to ten cm and were in the one- to two-leaf stage for the postemergence treatment. Treated plants and untreated controls were maintained in a greenhouse for approximately ten days, after which time all treated plants were compared to untreated controls and visually evaluated for injury. Plant response ratings, summarized in Table A, are based on a 0 to 100 scale where 0 is no effect and 100 is complete control. A dash (-) response means no test result.

[2] = tested on: velvetleaf (Abutilon theophrasti); experiment: Test A postemergence, velvetleaf; conditions: 0 to 100 scale (0 no effect, 100 complete control)
Text: as §1

[3] = tested on: giant foxtail (Setaria faberi); experiment: Test A postemergence, giant foxtail; conditions: 0 to 100 scale (0 no effect, 100 complete control)
Text: as §1

[4] = tested on: morningglory (Ipomoea spp.); experiment: Test A postemergence, morningglory; conditions: 0 to 100 scale (0 no effect, 100 complete control)
Text: as §1

[5] = tested on: pigweed (Amaranthus retroflexus); experiment: Test A preemergence, pigweed; conditions: 0 to 100 scale (0 no effect, 100 complete control)
Text: as §1

[6] = tested on: large crabgrass (Digitaria sanguinalis); experiment: Test A preemergence, large crabgrass; conditions: 0 to 100 scale (0 no effect, 100 complete control)
Text: as §1

[7] = tested on: umbrella sedge (Cyperus difformis); experiment: Test B flooded paddy test, umbrella sedge; conditions: Flood, scale 0 to 100
Text: (§2) Plant species in the flooded paddy test consisted of rice (Oryza sativa), umbrella sedge (Cyperus difformis), ducksalad (Heteranthera limosa) and barnyardgrass (Echinochloa crus-galli) grown to the 2-leaf stage for testing. At time of treatment, test pots were flooded to 3 cm above the soil surface, treated by application of test compounds directly to the paddy water, and then maintained at that water depth for the duration of the test. Treated plants and controls were maintained in a greenhouse for 13 to 15 days, after which time all species were compared to controls and visually evaluated. Plant response ratings, summarized in Table B, are based on a scale of 0 to 100 where 0 is no effect and 100 is complete control. A dash (-) response means no test result.

corn (Zea mays) [8] = experiment: Test A preemergence, corn; conditions: 0 to 100 scale (0 no effect, 100 complete control)
Text: as §1

[9] = tested on: large crabgrass (Digitaria sanguinalis); experiment: Test A postemergence, large crabgrass; conditions: 0 to 100 scale (0 no effect, 100 complete control)
Text: as §1

[10] = tested on: barnyardgrass (Echinochloa crus-galli); experiment: Test A preemergence, barnyardgrass; conditions: 0 to 100 scale (0 no effect, 100 complete control)
Text: as §1

[11] = tested on: velvetleaf (Abutilon theophrasti); experiment: Test A preemergence, velvetleaf; conditions: 0 to 100 scale (0 no effect, 100 complete control)
Text: as §1

[12] = tested on: pigweed (Amaranthus retroflexus); experiment: Test A postemergence, pigweed; conditions: 0 to 100 scale (0 no effect, 100 complete control)
Text: as §1

[13] = tested on: barnyardgrass (Echinochloa crus-galli); experiment: Test A postemergence, barnyardgrass; conditions: 0 to 100 scale (0 no effect, 100 complete control)
Text: as §1

[14] = tested on: ducksalad (Heteranthera limosa); experiment: Test B flooded paddy test, ducksalad; conditions: Flood, scale 0 to 100
Text: as §2

[15] = tested on: morningglory (Ipomoea spp.); experiment: Test A preemergence, morningglory; conditions: 0 to 100 scale (0 no effect, 100 complete control)
Text: as §1

[16] = tested on: giant foxtail (Setaria faberi); experiment: Test A preemergence, giant foxtail; conditions: 0 to 100 scale (0 no effect, 100 complete control)
Text: as §1

[17] = tested on: barnyardgrass (Echinochloa crus-galli); experiment: Test B flooded paddy test, barnyardgrass; conditions: Flood
Text: as §2

corn (Zea mays) [18] = experiment: Test A postemergence, corn; conditions: 0 to 100 scale (0 no effect, 100 complete control)
Text: as §1

rice (Oryza sativa) = experiment: Test B flooded paddy test, rice; conditions: Flood, scale 0 to 100
Text: as §2

[19] = tested on: wheat (Triticum aestivum); experiment: Test A postemergence, wheat; conditions: 0 to 100 scale (0 no effect, 100 complete control)
Text: as §1

[20] = 250 g ai/ha, scale 0 to 100 (0 no effect, 100 complete control)

## CC1(C)CC([S+]([O-])Cc2c(C(F)(F)C(F)(F)F)nc3n(c2=O)CCCC3)=NO1 (centres unmarked) [Compound 19]
[1]; 125 g ai/ha
  Plant response rating, Wheat: 0
[1]; 500 g ai/ha
  Plant response rating, Wheat: 20
[2]; 125 g ai/ha
  Plant response rating, Velvetleaf: 0
[2]; 500 g ai/ha
  Plant response rating, Velvetleaf: 20
[3]; 125 g ai/ha
  Plant response rating, Foxtail, Giant: 0
[3]; 500 g ai/ha
  Plant response rating, Foxtail, Giant: 50
[4]; 125 g ai/ha
  Plant response rating, Morningglory: 0
[4]; 500 g ai/ha
  Plant response rating, Morningglory: 20
[5]; 125 g ai/ha
  Plant response rating, Pigweed: 0
[5]; 500 g ai/ha
  Plant response rating, Pigweed: 20
[6]; 125 g ai/ha
  Plant response rating, Crabgrass, Large: 0
[6]; 500 g ai/ha
  Plant response rating, Crabgrass, Large: 80
[7]; 31 g ai/ha
  Plant response rating, Sedge, Umbrella: 0
[7]; 62 g ai/ha
  Plant response rating, Sedge, Umbrella: 0
[7]; 125 g ai/ha
  Plant response rating, Sedge, Umbrella: 0
[7]; 250 g ai/ha
  Plant response rating, Sedge, Umbrella: 0
Corn (Zea mays) [8]; 500 g ai/ha
  Plant response rating, Corn: 20
[9]; 125 g ai/ha
  Plant response rating, Crabgrass, Large: 0
[9]; 500 g ai/ha
  Plant response rating, Crabgrass, Large: 30
[10]; 125 g ai/ha
  Plant response rating, Barnyardgrass: 0
[10]; 500 g ai/ha
  Plant response rating, Barnyardgrass: 80
[11]; 125 g ai/ha
  Plant response rating, Velvetleaf: 0
[11]; 500 g ai/ha
  Plant response rating, Velvetleaf: 0
[12]; 125 g ai/ha
  Plant response rating, Pigweed: 0
[12]; 500 g ai/ha
  Plant response rating, Pigweed: 10
[13]; 125 g ai/ha
  Plant response rating, Barnyardgrass: 10
[13]; 500 g ai/ha
  Plant response rating, Barnyardgrass: 70
[14]; 31 g ai/ha
  Plant response rating, Ducksalad: 0
[14]; 62 g ai/ha
  Plant response rating, Ducksalad: 0
[14]; 125 g ai/ha
  Plant response rating, Ducksalad: 0
[14]; 250 g ai/ha
  Plant response rating, Ducksalad: 0
[15]; 125 g ai/ha
  Plant response rating, Morningglory: 0
[15]; 500 g ai/ha
  Plant response rating, Morningglory: 60
[16]; 125 g ai/ha
  Plant response rating, Foxtail, Giant: 0
[16]; 500 g ai/ha
  Plant response rating, Foxtail, Giant: 80
[17]; 31 g ai/ha, scale 0 to 100
  Plant response rating, Barnyardgrass: 0
[17]; 62 g ai/ha, scale 0 to 100
  Plant response rating, Barnyardgrass: 0
[17]; 125 g ai/ha, scale 0 to 100
  Plant response rating, Barnyardgrass: 0
[17]; [20]
  Plant response rating, Barnyardgrass: 0
Corn (Zea mays) [18]; 125 g ai/ha
  Plant response rating, Corn: 0
Corn (Zea mays) [18]; 500 g ai/ha
  Plant response rating, Corn: 40
Rice (Oryza sativa); 31 g ai/ha
  Plant response rating, Rice: 0
Rice (Oryza sativa); 62 g ai/ha
  Plant response rating, Rice: 0
Rice (Oryza sativa); 125 g ai/ha
  Plant response rating, Rice: 0
Rice (Oryza sativa); 250 g ai/ha
  Plant response rating, Rice: 0
[19]; 125 g ai/ha
  Plant response rating, Wheat: 0
[19]; 500 g ai/ha
  Plant response rating, Wheat: 20

## Cn1c(=O)c(CS(=O)(=O)C2=NOC(C)(C)C2)nc2ccccc21 [Compound 23]
[1]; 125 g ai/ha
  Plant response rating, Wheat: 0
[1]; 500 g ai/ha
  Plant response rating, Wheat: 0
[2]; 125 g ai/ha
  Plant response rating, Velvetleaf: 0
[2]; 500 g ai/ha
  Plant response rating, Velvetleaf: 0
[3]; 125 g ai/ha
  Plant response rating, Foxtail, Giant: 10
[3]; 500 g ai/ha
  Plant response rating, Foxtail, Giant: 60
[4]; 125 g ai/ha
  Plant response rating, Morningglory: 0
[4]; 500 g ai/ha
  Plant response rating, Morningglory: 0
[5]; 125 g ai/ha
  Plant response rating, Pigweed: 0
[5]; 500 g ai/ha
  Plant response rating, Pigweed: 10
[6]; 125 g ai/ha
  Plant response rating, Crabgrass, Large: 10
[6]; 500 g ai/ha
  Plant response rating, Crabgrass, Large: 70
[7]; 62 g ai/ha
  Plant response rating, Sedge, Umbrella: 0
[7]; 250 g ai/ha
  Plant response rating, Sedge, Umbrella: 0
Corn (Zea mays) [8]; 125 g ai/ha
  Plant response rating, Corn: 0
Corn (Zea mays) [8]; 500 g ai/ha
  Plant response rating, Corn: 0
[9]; 125 g ai/ha
  Plant response rating, Crabgrass, Large: 30
[9]; 500 g ai/ha
  Plant response rating, Crabgrass, Large: 60
[10]; 125 g ai/ha
  Plant response rating, Barnyardgrass: 20
[10]; 500 g ai/ha
  Plant response rating, Barnyardgrass: 40
[11]; 125 g ai/ha
  Plant response rating, Velvetleaf: 0
[11]; 500 g ai/ha
  Plant response rating, Velvetleaf: 0
[12]; 125 g ai/ha
  Plant response rating, Pigweed: 0
[12]; 500 g ai/ha
  Plant response rating, Pigweed: 0
[13]; 125 g ai/ha
  Plant response rating, Barnyardgrass: 40
[13]; 500 g ai/ha
  Plant response rating, Barnyardgrass: 60
[14]; 62 g ai/ha
  Plant response rating, Ducksalad: 0
[14]; 250 g ai/ha
  Plant response rating, Ducksalad: 0
[15]; 125 g ai/ha
  Plant response rating, Morningglory: 0
[16]; 125 g ai/ha
  Plant response rating, Foxtail, Giant: 30
[16]; 500 g ai/ha
  Plant response rating, Foxtail, Giant: 80
[17]; 62 g ai/ha, scale 0 to 100
  Plant response rating, Barnyardgrass: 0
[17]; [20]
  Plant response rating, Barnyardgrass: 0
Corn (Zea mays) [18]; 125 g ai/ha
  Plant response rating, Corn: 0
Corn (Zea mays) [18]; 500 g ai/ha
  Plant response rating, Corn: 0
Rice (Oryza sativa); 62 g ai/ha
  Plant response rating, Rice: 0
Rice (Oryza sativa); 250 g ai/ha
  Plant response rating, Rice: 0
[19]; 125 g ai/ha
  Plant response rating, Wheat: 0
[19]; 500 g ai/ha
  Plant response rating, Wheat: 0
